{
  "source": "patent US20190110993A1",
  "about": "“Solid Nanoparticle Formulation of Water Insoluble Pharmaceutical Substances with Reduced Ostwald Ripening” (priority 2017, published 2019)",
  "key": {"[1]": {"conditions": "cited from earlier work"}, "[2]": {"conditions": "after irinotecan; cited from earlier work"}, "[3]": {"system": "topoisomerase I purified from human and rodent tumor cell lines", "conditions": "more potent than irinotecan; cited from earlier work"}, "human plasma proteins": {"system": "human plasma proteins", "conditions": "cited from earlier work"}, "[4]": {"conditions": "in blood; cited from earlier work"}, "[5]": {"conditions": "cited from earlier work; for solubility in the infusion solution: Jevtana infusion solution"}, "[6]": {"system": "PANC-1 human pancreatic tumor xenografts", "assay": "PANC-1 xenograft model", "type": "in vivo, athymic nude mice", "conditions": "PANC-1, 28 mg/kg once every third day for three treatments", "description": "The anti-tumor efficacy studies of LBI-1103 in the MDA-MB-468 xenograft model as compared to Taxotere® and in the PANC-1 xenograft model as compared to Taxotere® and Gemcytabine were completed recently. The controls and LBI-1103 were injected intravenously once every other day for three treatments except for PANC-1 xenograft animals, where they were treated with Gemcitabine once every third day for three treatments.\nIn the PANC-1 xenograft models treated with LBI-1103, Taxotere® and Gemcitabine, a significant reduction in tumor weight was observed after the first day of dosing and this trend continued till the end of the study (FIG. 19)."}},
  "note": "Where two headings read alike, the source gives them in different places.",
  "data": [
    {"smiles": "CC(=O)O[C@@]12CO[C@@H]1C[C@H](O)[C@@]1(C)C(=O)[C@H](O)C3=C(C)[C@@H](OC(=O)[C@H](O)[C@@H](NC(=O)OC(C)(C)C)c4ccccc4)C[C@@](O)([C@@H](OC(=O)c4ccccc4)[C@H]21)C3(C)C", "note": "[docetaxel]", "values": [
      {"measurement": "solubility in water", "setting": "[1]", "value": "about 14 mg/L"}
    ]},
    {"smiles": "CCc1c2c(nc3ccc(O[C@@H]4O[C@H](C(=O)O)[C@@H](O)[C@H](O)[C@H]4O)cc13)-c1cc3c(c(=O)n1C2)COC(=O)[C@]3(O)CC", "note": "[SN-38 glucuronide]", "values": [
      {"measurement": "urinary excretion", "setting": "[2]", "value": 3, "unit": "%"}
    ]},
    {"smiles": "C/C(=C\\c1csc(C)n1)[C@@H]1C[C@@H]2O[C@]2(C)CCC[C@H](C)[C@H](O)[C@@H](C)C(=O)C(C)(C)[C@@H](O)CC(=O)N1", "note": "[Ixabepilone]", "values": [
      {"measurement": "solubility in water", "setting": "[1]", "value": "about 3.5 mg/L"}
    ]},
    {"smiles": "CCc1c2c(nc3ccc(O)cc13)-c1cc3c(c(=O)n1C2)COC(=O)[C@]3(O)CC", "note": "[SN-38]", "values": [
      {"measurement": "potency as inhibitor of topoisomerase I relative to irinotecan", "setting": "[3]", "value": "approximately 1000 times"},
      {"measurement": "urinary excretion", "setting": "[2]", "value": "< 1", "unit": "%"},
      {"measurement": "plasma protein binding (bound)", "setting": "human plasma proteins; SN-38: human plasma proteins, mainly albumin", "value": "approximately 95%"},
      {"measurement": "binding to plasma proteins", "setting": "human plasma proteins; adults and pediatric patients, independent of serum albumin levels", "value": "94-96%"},
      {"measurement": "bound, mainly to albumin and lymphocytes, also erythrocytes and neutrophils", "setting": "[4]", "value": "at least 99%"}
    ]},
    {"smiles": "CCc1c2c(nc3ccc(OC(=O)N4CCC(N5CCCCC5)CC4)cc13)-c1cc3c(c(=O)n1C2)COC(=O)[C@]3(O)CC", "note": "[irinotecan]", "values": [
      {"measurement": "bound to and/or localized in erythrocytes", "setting": "[4]", "value": 80, "unit": "%"}
    ]},
    {"smiles": "CO[C@H]1C(=O)[C@]2(C)[C@@H](OC)C[C@H]3OC[C@@]3(OC(C)=O)[C@H]2[C@H](OC(=O)c2ccccc2)[C@]2(O)C[C@H](OC(=O)[C@H](O)[C@@H](NC(=O)OC(C)(C)C)c3ccccc3)C(C)=C1C2(C)C", "note": "[cabazitaxel]", "values": [
      {"measurement": "solubility in water", "setting": "[1]", "value": "about 8 mg/L"},
      {"measurement": "solubility in the infusion solution", "setting": "[5]; 5° C.", "value": 80, "unit": "µg/mL"},
      {"measurement": "solubility in the infusion solution", "setting": "[5]; 25° C.", "value": 60, "unit": "µg/mL"},
      {"measurement": "solubility in the premix", "setting": "[5]; Jevtana premix solution (cabazitaxel concentration 10 mg/mL)", "value": 3440, "unit": "µg/mL"}
    ]},
    {"smiles": "CC(=O)O[C@H]1C(=O)[C@@]2(C)[C@H]([C@H](OC(=O)c3ccccc3)[C@]3(O)C[C@H](OC(=O)[C@H](O)[C@@H](NC(=O)c4ccccc4)c4ccccc4)C(C)=C1C3(C)C)[C@]1(OC(C)=O)CO[C@@H]1C[C@@H]2O", "note": "[paclitaxel]", "values": [
      {"measurement": "solubility in water", "setting": "[1]", "value": "about 0.4 mg/L"}
    ]},
    {"smiles": "Nc1ccn([C@@H]2O[C@H](CO)[C@@H](O)C2(F)F)c(=O)n1", "note": "[Gemcytabine, Gemcitabine]", "values": [
      {"measurement": "tumor regression, mean tumor weight on last day of study compared to Day 1", "setting": "[6]", "value": 73, "unit": "%"}
    ]}
  ]
}
